In assay [1] the test system is MCF-7 cells. Kind of assay: Breast Cancer Cell Viability Assay (MCF-7, CellTiter-Glo). The format is cell-based. Particulars: 5 days' compound exposure; for IC50: Homo sapiens, MCF7, 120 h. The method, then:
MCF-7 cells were adjusted to a concentration of 20,000 cells per mL in RPMI containing 10% FBS and 20 mM HEPES. 16 microliters of the cell suspension (320 cells) was added to each well of a 384 well plate, and the cells were incubated overnight to allow the cells to adhere. The following day an eleven point, serial semilog dilution of each compound was added to the cells in 16 μL at a final concentration ranging from 0.3-0.000003 μM. After 5 days' compound exposure, 16 μL of CellTiter-GLo (Promega, Madison Wis.) was added to the cells the relative luminescence units (RLUs) of each well was determined CellTiter-Glo added to 32 μL of medium without cells was used to obtain a background value. The Percent viability of each sample was determined as follows: (RLU sample-RLU background/RLU untreated cells-RLU background)×100=% viability.
Background: Cellular ATP, detected with luciferase, serves as a proxy for viable cell number.

In assay [2] the target is T1, ER-α (Homo sapiens, UniProt P03372).
T1 sequence (P03372 1-595): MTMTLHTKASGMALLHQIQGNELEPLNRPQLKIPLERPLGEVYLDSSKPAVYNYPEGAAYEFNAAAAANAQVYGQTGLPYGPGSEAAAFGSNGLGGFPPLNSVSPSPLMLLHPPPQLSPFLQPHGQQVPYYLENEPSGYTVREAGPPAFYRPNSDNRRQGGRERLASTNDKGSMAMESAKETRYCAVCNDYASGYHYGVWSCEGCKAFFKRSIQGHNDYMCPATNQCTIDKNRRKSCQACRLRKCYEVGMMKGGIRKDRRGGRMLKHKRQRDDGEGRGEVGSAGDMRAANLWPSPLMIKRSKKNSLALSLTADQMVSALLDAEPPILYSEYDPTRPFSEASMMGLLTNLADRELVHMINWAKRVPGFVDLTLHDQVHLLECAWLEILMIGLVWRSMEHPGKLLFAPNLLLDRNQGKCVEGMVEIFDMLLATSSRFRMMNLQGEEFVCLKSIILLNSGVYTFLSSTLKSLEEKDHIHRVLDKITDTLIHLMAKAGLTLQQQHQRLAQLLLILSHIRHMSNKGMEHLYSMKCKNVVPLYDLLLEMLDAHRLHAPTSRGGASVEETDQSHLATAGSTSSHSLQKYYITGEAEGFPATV
As to the kind of experiment: Breast Cancer Cell ER-α In Cell Western Assay (SP1). Type of assay: cell-based. The conditions noted are these: MCF-7 cells, SP1 antibody, 4 or 24 hr post compound addition; for Emax: MCF7, read-out: ER-α In Cell Western Assay (SP1) Max Response; for DC50: read-out: ER-α In Cell Western Assay (SP1) IC50. The method, then:
MCF-7 cells were adjusted to a concentration of 200,000 cells per mL in RPMI containing 10% charcoal-stripped FBS and 20 mM HEPES. 16 microliters of the cell suspension (3200 cells) was added to each well of a poly-D-lysine 384 well plate, and the cells were incubated overnight to allow the cells to adhere. The following day an eleven point, serial semilog dilution of each compound was added to the cells in 16 μL at a final concentration ranging from 0.3-0.000003 μM. At 4 or 24 hr post compound addition, the cells were fixed (10% formalin in PBS) for 20 minutes. Cells were permeablized in PBS 0.1% Triton and blocked with LICOR blocking buffer (50 μL1/well, 90′). The wells were then incubated overnight at 4° C. with SP1 rabbit monoclonal Ab (Thermo Scientific) diluted 1:1000 in LICOR blocking buffer/0.1% Tween-20. Wells which were treated with blocking buffer with Tween but no antibody were used as a background control. Wells were washed with 0.1% Tween-20/PBS and then incubated in goat anti-rabbit IRDye™ 800CW (LICOR Inc.; 1:1000) and DRAQ5 DNA dye (1:2000 for 2 mM stock) diluted in LICOR blocking buffer containing 0.1% Tween-20 and 0.01% SDS for 60 minutes. Cells were washed (50 μl/well, 5′ each) in 0.1% Tween-20/PBS. Plates were scanned on a LICOR Odyssey infrared imaging system. Integrated intensities in the 800 nm channel and 700 nm channel were measured to determine levels of ER and DNA respectively. Percent ER levels were determined as follows: (Integrated intensity 800 nm sample/integrated intensity 700 nm sample)/(Integrated intensity 800 nm untreated cells/integrated intensity 700 nm untreated cells)×100=% ER levels.

Bounds are passed on as bounds.

Usually IC50 stands for the concentration that gives 50% inhibition. A higher IC50 goes with lower potency. In the case of `CC/C(=C(/c1ccc(/C=C/C(=O)O)cc1)c1ccc2[nH]ncc2c1)c1cccc(F)c1Cl` [Compound 23, (E)-3-(4-((E)-2-(2-Chloro-3-fluorophenyl)-1-(1H-indazol-5-yl)but-1-en-1-yl)phenyl)acrylic acid], in assay [1], the “MCF7 Viability Assay Max Response” value was “++ (++ = a single % value ≧ 40%)” and the IC50 was at most 100 nM. For the same compound, in assay [2], the Emax is at least 40% and the DC50 is at most 100 nM.
On to `O=C(O)/C=C/c1ccc(/C(=C(\c2ccccc2)C2CC2)c2ccc3[nH]ncc3c2)cc1` [Compound 24, (E)-3-(4-((E)-2-Cyclopropyl-1-(1H-indazol-5-yl)-2-phenylvinyl)phenyl)acrylic acid], for which, in assay [1], the “MCF7 Viability Assay Max Response” value was “++ (++ = a single % value ≧ 40%)” and the IC50 is at most 100 nM. Further, in assay [2], the Emax is at least 40% and the DC50 is at most 100 nM.
In the case of `CC/C(=C(/c1ccc(/C=C/C(=O)O)cc1)c1ccc2[nH]ncc2c1)c1ccc(F)cc1C` [Compound 25, (E)-3-(4-((E)-2-(4-Fluoro-2-methylphenyl)-1-(1H-indazol-5-yl)but-1-en-1-yl)phenyl)acrylic acid], in assay [1], the “MCF7 Viability Assay Max Response” value is listed as “++ (++ = a single % value ≧ 40%)” and the IC50 was at most 100 nM. In assay [2], the Emax was at least 40% and the DC50 is at most 100 nM.
As to `CC/C(=C(/c1ccc(/C=C/C(=O)O)cc1)c1ccc2[nH]ncc2c1)c1c(F)cccc1F` [Compound 26, (E)-3-(4-((E)-2-(2,6-Difluorophenyl)-1-(1H-indazol-5-yl)but-1-en-1-yl)phenyl)acrylic acid], in assay [1], the “MCF7 Viability Assay Max Response” value is listed as “++ (++ = a single % value ≧ 40%)” and the 50% inhibitory concentration (IC50) is at most 100 nM. Also, in assay [2], the Emax was at least 40% and the DC50 is at most 100 nM.
For the compound `CC/C(=C(/c1ccc(/C=C/C(=O)O)cc1)c1ccc2[nH]ncc2c1)c1c(Cl)cccc1Cl` [Compound 27, (E)-3-(4-((E)-2-(2,6-Dichlorophenyl)-1-(1H-indazol-5-yl)but-1-en-1-yl)phenyl)acrylic acid], in assay [1], the “MCF7 Viability Assay Max Response” value was “++ (++ = a single % value ≧ 40%)” and the IC50 was at most 100 nM. In assay [2], the Emax is at least 40% and the DC50 is at most 100 nM.
As to `[2H]C([2H])([2H])C/C(=C(/c1ccc(/C=C/C(=O)O)cc1)c1ccc2[nH]ncc2c1)c1ccccc1` [Compound 28, (E)-3-(4-((E)-4,4,4-Trideutero-1-(1H-indazol-5-yl)-2-phenylbut-1-en-1-yl)phenyl)acrylic acid], in assay [1], the “MCF7 Viability Assay Max Response” value is given as “++ (++ = a single % value ≧ 40%)” and the IC50 is at most 100 nM. Besides, the Emax in assay [2] was at least 40%.
On to `CC/C(=C(/c1ccc(/C=C/C(=O)O)cc1)c1ccc2[nH]ncc2c1)c1ccc(F)c(C)c1` [Compound 29, (E)-3-(4-((E)-2-(4-Fluoro-3-methylphenyl)-1-(1H-indazol-5-yl)but-1-en-1-yl)phenyl)acrylic acid], for which, in assay [1], the “MCF7 Viability Assay Max Response” value is “++ (++ = a single % value ≧ 40%)” and the IC50 was at most 100 nM. Besides, in assay [2], the Emax is at least 40% and the DC50 is at most 100 nM.
Regarding `CC/C(=C(/c1ccc(/C=C/C(=O)O)cc1)c1ccc2[nH]ncc2c1)c1cc(F)ccc1C` [Compound 30, (E)-3-(4-((E)-2-(5-Fluoro-2-methylphenyl)-1-(1H-indazol-5-yl)but-1-en-1-yl)phenyl)acrylic acid], in assay [1], the “MCF7 Viability Assay Max Response” value is given as “++ (++ = a single % value ≧ 40%)” and the IC50 is at most 100 nM. In assay [2], the Emax was at least 40% and the DC50 is at most 100 nM.
Take `CC/C(=C(/c1ccc(/C=C/C(=O)O)cc1)c1ccc2[nH]ncc2c1)c1cccc(F)c1F` [Compound 31, (E)-3-(4-((E)-2-(2,3-Difluorophenyl)-1-(1H-indazol-5-yl)but-1-en-1-yl)phenyl)acrylic acid]: in assay [1], the “MCF7 Viability Assay Max Response” value is “++ (++ = a single % value ≧ 40%)” and the IC50 is at most 100 nM. In addition, in assay [2], the Emax was at least 40% and the DC50 is at most 100 nM.
Regarding `CC/C(=C(/c1ccc(/C=C/C(=O)O)cc1)c1ccc2[nH]ncc2c1)c1cc(F)ccc1F` [Compound 32, (E)-3-(4-((E)-2-(2,5-Difluorophenyl)-1-(1H-indazol-5-yl)but-1-en-1-yl)phenyl)acrylic acid], in assay [1], the “MCF7 Viability Assay Max Response” value is listed as “++ (++ = a single % value ≧ 40%)” and the IC50 is at most 100 nM. In addition, in assay [2], the Emax was at least 40% and the DC50 was at most 100 nM.
For the compound `CC/C(=C(/c1ccc(/C=C/C(=O)O)cc1)c1ccc2[nH]ncc2c1)c1cc(F)ccc1Cl` [Compound 33, (E)-3-(4-((E)-2-(2-Chloro-5-fluorophenyl)-1-(1H-indazol-5-yl)but-1-en-1-yl)phenyl)acrylic acid], in assay [1], the “MCF7 Viability Assay Max Response” value is recorded as “++ (++ = a single % value ≧ 40%)” and the IC50 was at most 100 nM. For the same compound, in assay [2], the Emax is at least 40% and the DC50 was at most 100 nM.
Turning to `CC/C(=C(/c1ccc(/C=C/C(=O)O)cc1)c1ccc2[nH]ncc2c1)c1c(C)cccc1Cl` [Compound 34, (E)-3-(4-((E)-2-(2-Chloro-6-methylphenyl)-1-(1H-indazol-5-yl)but-1-en-1 yl)phenyl)acrylic acid], in assay [1], the “MCF7 Viability Assay Max Response” value is recorded as “++ (++ = a single % value ≧ 40%)” and the IC50 was at most 100 nM. In assay [2], the Emax was at least 40% and the DC50 was at most 100 nM.
As for `CC/C(=C(/c1ccc(/C=C/C(=O)O)cc1)c1cc(Cl)c2[nH]ncc2c1)c1ccccc1` [Compound 35, (E)-3-(4-((E)-1-(7-Chloro-1H-indazol-5-yl)-2-phenylbut-1-en-1-yl)phenyl)acrylic acid], in assay [1], the “MCF7 Viability Assay Max Response” value is “++ (++ = a single % value ≧ 40%)” and the IC50 was at most 100 nM. In addition, in assay [2], the Emax is at least 40% and the DC50 is at most 100 nM.
Consider `CC/C(=C(/c1ccc(/C=C/C(=O)O)cc1)c1ccc2[nH]ncc2c1C)c1ccccc1` [Compound 36, (E)-3-(4-((E)-1-(4-Methyl-1H-indazol-5-yl)-2-phenylbut-1-en-1-yl)phenyl)acrylic acid], for which, in assay [1], the “MCF7 Viability Assay Max Response” value is given as “++ (++ = a single % value ≧ 40%)” and the IC50 was at most 100 nM. Moreover, in assay [2], the Emax was at least 40% and the DC50 is at most 100 nM.
Take `CC/C(=C(/c1ccc(/C=C/C(=O)O)cc1)c1cc(C)c2[nH]ncc2c1)c1ccccc1` [Compound 37, (E)-3-(4-((E)-1-(7-Methyl-1H-indazol-5-yl)-2-phenylbut-1-en-1-yl)phenyl)acrylic acid]: in assay [1], the “MCF7 Viability Assay Max Response” value was “++ (++ = a single % value ≧ 40%)” and the IC50 was at most 100 nM. Further, in assay [2], the Emax was at least 40% and the DC50 is at most 100 nM.
`CC/C(=C(/c1ccc(/C=C/C(=O)O)cc1)c1cc2cn[nH]c2cc1C)c1ccccc1` [Compound 38, (E)-3-(4-((E)-1-(6-Methyl-1H-indazol-5-yl)-2-phenylbut-1-en-1-yl)phenyl)acrylic acid]: in assay [1], the “MCF7 Viability Assay Max Response” value is listed as “++ (++ = a single % value ≧ 40%)” and the IC50 is over 100 nM. In assay [2], the Emax is at least 40% and the DC50 is over 100 nM.
